Several values for one entry are separate records, joined by “and”; a condition that tells them apart may be missing. Identical values can stand only once.
Legend:
cockroaches [1] = test: Topical toxicity test of alcohols and/or PD23 mineral oil, dead at 24 h (Example 10); assay type: in vivo, Blattella germanica
Experimental: (§1) Toxicity evaluations were performed on 7-14 day old adult male and female German cockroaches (SCJ Strain, S.C. Johnson & Son, Racine, Wis.). Approximately 12 cockroaches were transferred to individual 100×20 mm polystyrene Petri dishes and anesthetized with a 15-25 second exposure to carbon dioxide. The inside edge of each Petri dish was lightly coated with mineral oil plus petroleum jelly in a 1:3 (wt/wt) ratio to minimize escape. Anesthetized cockroaches were positioned with their ventral side up, and a 1 μl drop of the diluted test composition was applied to the area between the meso- and metathoracic legs using a Rainin L-10, 10 μl capacity pipette (Rainin Instrument, LLC, Oakland, Calif.). Five replications of 12 male cockroaches were done for each test composition. Separate tests were done using female cockroaches. Results were evaluated at 24 hours following treatment. Cockroaches were scored as either alive (dorsal side up, active movement when abdomen prodded with dissecting probe) or moribund/dead (dorsal side up and no movement when abdomen prodded or ventral side up and insect unable to right itself).
The compositions comprising alcohol and/or mineral oil are described in Table 13.

cockroaches [2] = test: LD50 and LD10 of mineral oils and alcohols, dose-response mortality, probit analysis (Example 9); assay type: in vivo, Blattella germanica; settings: 95% CI printed in the line below
Experimental: In this example, various mineral oils and alcohols were tested to determine, for cockroaches, the LD50 and LD10 for each.
PD23 and PD28 mineral oils were obtained from Sonneborn LLC, Mahwah, N.J. The physical properties of these oils are shown in Table 11. Each mineral oil was tested to determine the LD50 and LD10 (Table 12).
The tested alcohols were obtained from Sigma-Aldrich Corp., St. Louis, Mo. Each alcohol was tested to determine the LD50 and LD10 (Table 12).

cockroaches [3] = test: 1-propanol and 1-heptanol alone and in combination with Exxsol D95 mineral oil (Example 17); assay type: in vivo; settings: for # dead at 24 h / Proportion dead at 24 h: individual treatment; for synergy with EXXSOL D95: result in words
cockroaches (all male) = test: Topical toxicity test of mineral oil and/or hexylene glycol, isopropyl myristate, dioxane or d-limonene in acetone (Examples 3-6); assay type: in vivo, Blattella germanica; settings: 24 hours; for # dead: 1 μl topical, remainder acetone
Experimental: as §1, with “itself). […]” for “itself).”
(§2) Tests were generally performed as described in Example 1, except the number of cockroaches (all male) tested for each composition is set forth below in Table 6, and the compositions were not further diluted with acetone in a 1:1 (wt/wt) ratio prior to testing. The results are shown in Table 6, which lists the number of cockroaches tested for each composition, the number of dead cockroaches out of the total number of cockroaches tested, the square root percent dead cockroaches, the proportion of dead cockroaches, and the arcsine square root percent dead cockroaches.
as §2, with “7,” for “6,”

cockroaches [4] = test: Topical toxicity test of various compounds and/or PD23 mineral oil, dead at 24 h (Example 12); assay type: in vivo, Blattella germanica
Experimental: as §1

[5] = Table 14, composite data of the replicates
[6] = Table 14, composite data, calculated proportion
[7] = Table 13, per replicate of 10-16 treated cockroaches, mg per insect in the label

CC(C)CO [isobutyl alcohol]
# dead at 24 h (cockroaches [1]; Table 13, per replicate of 10-16 treated cockroaches, mg per insect in the label, listed as isobutyl alcohol (0.50 mg)): 1
Proportion dead at 24 h (cockroaches [1]; Table 13, per replicate, listed as isobutyl alcohol (0.50 mg)): 0.071
# dead at 24 h (cockroaches [1]; [5]): 1
Proportion dead at 24 h (cockroaches [1]; [6]): 0.026

1-butanol [Composition 1-butanol]
LD10 mg/insect (cockroaches [2]): 0.877 mg/insect
LD50 mg/insect (cockroaches [2]): 1.018 mg/insect
# dead at 24 h (cockroaches [1]; Table 13, per replicate of 10-16 treated cockroaches, mg per insect in the label, listed as 1-butanol (0.8 mg)): 0 (2×) and 1
Proportion dead at 24 h (cockroaches [1]; Table 13, per replicate, listed as 1-butanol (0.8 mg)): 0.000 (2×) and 0.100
# dead at 24 h (cockroaches [1]; [5]): 1
Proportion dead at 24 h (cockroaches [1]; [6]): 0.029

CCCCCCCCO [Composition 1-octanol, 1-octanol]
# dead at 24 h (cockroaches [1]; [5]): 2
Proportion dead at 24 h (cockroaches [1]; [6]): 0.054

1-propanol [Composition 1-propanol]
LD10 mg/insect (cockroaches [2]): 0.472 mg/insect
LD50 mg/insect (cockroaches [2]): 0.557 mg/insect
# dead at 24 h (cockroaches [1]; Table 13, per replicate of 10-16 treated cockroaches, mg per insect in the label, listed as 1-propanol (0.45 mg)): 1 and 0 (2×)
Proportion dead at 24 h (cockroaches [1]; Table 13, per replicate, listed as 1-propanol (0.45 mg)): 0.083 and 0.000 (2×)
# dead at 24 h (cockroaches [1]; [5]): 1
Proportion dead at 24 h (cockroaches [1]; [6]): 0.028
# dead at 24 h (cockroaches [3]; 0.45 mg): 1
Proportion dead at 24 h (cockroaches [3]; 0.45 mg): 0.028
synergy with EXXSOL D95 (cockroaches [3]): significant synergy

CC(=O)CC(C)(C)O [Diacetone alcohol]
# dead at 24 h (cockroaches [1]; [5]): 1
Proportion dead at 24 h (cockroaches [1]; [6]): 0.025

CCCCCCCCCCO [Composition 1-decanol, 1-decanol]
# dead at 24 h (cockroaches [1]; [5]): 1
Proportion dead at 24 h (cockroaches [1]; [6]): 0.027

CCO [Ethanol]
# dead at 24 h (cockroaches [1]; [5]): 1
Proportion dead at 24 h (cockroaches [1]; [6]): 0.027

CCCCCCCCCCCO [Composition 1-undecanol, 1-undecanol]
# dead at 24 h (cockroaches [1]; [5]): 4
Proportion dead at 24 h (cockroaches [1]; [6]): 0.105

CCCCCCCO [Composition 1-heptanol, 1-heptanol]
# dead at 24 h (cockroaches [1]; [5]): 1
Proportion dead at 24 h (cockroaches [1]; [6]): 0.028
# dead at 24 h (cockroaches [3]; 0.40 mg): 1
Proportion dead at 24 h (cockroaches [3]; 0.40 mg): 0.028
synergy with EXXSOL D95 (cockroaches [3]): significant synergy

CCCCOCCO [2-butoxyethanol]
Proportion dead at 24 h (cockroaches [1]; Table 13, per replicate): 0.000
# dead at 24 h (cockroaches [1]; [7]): 0
# dead at 24 h (cockroaches [1]; [5]): 0
Proportion dead at 24 h (cockroaches [1]; [6]): 0.000

C1COCCO1 [Dioxane (50%), Dioxane]
# dead (cockroaches (all male); Table 6, per replicate): 0 (4×) and 1
Arcsine square root % dead (cockroaches (all male); Table 6, per replicate): 0
Proportion dead (cockroaches (all male); Table 6, per replicate): 0
Square root % dead (cockroaches (all male); Table 6, per replicate): 0

C=C(C)[C@H]1CC=C(C)CC1 [d-limonene (40%), d-limonene]
# dead (cockroaches (all male); Table 7, per replicate): 1 and 0 and 2 (2×)
Arcsine square root % dead (cockroaches (all male); Table 7, per replicate): 0
Proportion dead (cockroaches (all male); Table 7, per replicate): 0
Square root % dead (cockroaches (all male); Table 7, per replicate): 0

CCCCCCCCCCCCO [Composition 1-dodecanol, 1-dodecanol]
# dead at 24 h (cockroaches [1]; [5]): 3
Proportion dead at 24 h (cockroaches [1]; [6]): 0.077

CC(C)(C)O [tertiary butyl alcohol]
# dead at 24 h (cockroaches [1]; Table 13, per replicate of 10-16 treated cockroaches, mg per insect in the label, listed as t-butyl alcohol (0.5 mg)): 0 (3×) and 2
Proportion dead at 24 h (cockroaches [1]; Table 13, per replicate, listed as t-butyl alcohol (0.5 mg)): 0.000
# dead at 24 h (cockroaches [1]; [5]): 2
Proportion dead at 24 h (cockroaches [1]; [6]): 0.045

CC(C)O [Isopropyl alcohol]
Proportion dead at 24 h (cockroaches [1]; Table 13, per replicate): 0.000
# dead at 24 h (cockroaches [1]; [7]): 0
# dead at 24 h (cockroaches [1]; [5]): 0
Proportion dead at 24 h (cockroaches [1]; [6]): 0.000

CCCCCCCCCO [Composition 1-nonanol, 1-nonanol]
# dead at 24 h (cockroaches [1]; [5]): 1
Proportion dead at 24 h (cockroaches [1]; [6]): 0.024

CCCCCCO [Composition 1-hexanol, 1-hexanol]
Proportion dead at 24 h (cockroaches [1]; Table 13, per replicate): 0.083
# dead at 24 h (cockroaches [1]; [7]): 1
# dead at 24 h (cockroaches [1]; [5]): 3
Proportion dead at 24 h (cockroaches [1]; [6]): 0.083

OCCc1ccccc1 [2-phenylethanol]
LD10 mg/insect (cockroaches [2]): 0.075 mg/insect
# dead at 24 h (cockroaches [1]; [5]): 5
Proportion dead at 24 h (cockroaches [1]; [6]): 0.106

2-butanol [Composition 2-butanol]
LD10 mg/insect (cockroaches [2]): 0.881 mg/insect
LD50 mg/insect (cockroaches [2]): 1.188 mg/insect
# dead at 24 h (cockroaches [1]; Table 13, per replicate of 10-16 treated cockroaches, mg per insect in the label, listed as 2-butanol (0.8 mg)): 0 (2×) and 1
Proportion dead at 24 h (cockroaches [1]; Table 13, per replicate, listed as 2-butanol (0.8 mg)): 0.000 (2×) and 0.083
# dead at 24 h (cockroaches [1]; [5]): 1
Proportion dead at 24 h (cockroaches [1]; [6]): 0.026

CCCCCCCCCCCCCCO [1-tetradecanol]
# dead at 24 h (cockroaches [1]; Table 13, per replicate of 10-16 treated cockroaches, mg per insect in the label, listed as 1-tetradecanol (1.00 mg)): 1 and 2
Proportion dead at 24 h (cockroaches [1]; Table 13, per replicate, listed as 1-tetradecanol (1.00 mg)): 0.083 and 0.154
# dead at 24 h (cockroaches [1]; [5]): 4
Proportion dead at 24 h (cockroaches [1]; [6]): 0.108

C1CCOC1 [Tetrahydrofuran]
# dead at 24 h (cockroaches [4]; compound alone, 0.80 mg): 3
Proportion dead at 24 hr (cockroaches [4]; compound alone, 0.80 mg): 0.300

CC(Cl)(Cl)Cl [Methyl chloroform (71-55-6) (2.00 mg), Methyl chloroform]
# dead at 24 h (cockroaches [4]; Table 17, composite data): 2
Proportion dead at 24 h (cockroaches [4]; Table 17, composite data, calculated proportion): 0.095

CO [Methanol]
LD10 mg/insect (cockroaches [2]): Estimated at ~3.000 mg/insect
LD50 mg/insect (cockroaches [2]): >7.00 mg/insect
# dead at 24 h (cockroaches [1]; Table 13, per replicate of 10-16 treated cockroaches, mg per insect in the label, listed as methanol (3.0 mg)): 0 (2×) and 1
Proportion dead at 24 h (cockroaches [1]; Table 13, per replicate, listed as methanol (3.0 mg)): 0.000 (2×) and 0.077
# dead at 24 h (cockroaches [1]; [5]): 1
Proportion dead at 24 h (cockroaches [1]; [6]): 0.026
